≈ marks a conversion by molar mass, not a printed value. Calls of active or inactive are those of the source. No cut-off for these calls is given here.
Columns and labels:
Format in all cases: functional
[1] = system: Trichophyton mentagrophytes; experiment: Antifungal activity against Trichophyton mentagrophytes IFO 40996 assessed as growth inhibition at 37 degC for 48 hr
Trichophyton rubrum [2] = experiment: Antifungal activity against Trichophyton rubrum IFO 9185 assessed as growth inhibition at 37 degC for 48 hr; conditions: IFO 9185, 48 h
Aspergillus fumigatus [3] = experiment: Antifungal activity against Aspergillus fumigatus HIC 6094 assessed as growth inhibition at 37 degC for 48 hr; conditions: HIC 6094, 48 h
Candida albicans [4] = experiment: Antifungal activity against Candida albicans ATCC 10231 assessed as growth inhibition at 37 degC for 48 hr; conditions: ATCC 10231, 48 h
[5] = system: Trichophyton mentagrophytes; experiment: Antifungal activity against Trichophyton mentagrophytes IFO 40996 assessed as growth inhibition at 300 ug/disc at 37 degC for 48 hr; conditions: for zone of inhibition at 300 µg/disc: IFO 40996, 48 h, read-out: IZ
Trichophyton rubrum [6] = experiment: Antifungal activity against Trichophyton rubrum IFO 9185 assessed as growth inhibition at 300 ug/disk at 37 degC for 48 hr; conditions: for zone of inhibition at 300 µg/disc: IFO 9185, 48 h, read-out: IZ
Aspergillus fumigatus [7] = experiment: Antifungal activity against Aspergillus fumigatus HIC 6094 assessed as growth inhibition at 300 ug/disc at 37 degC for 48 hr; conditions: for zone of inhibition at 300 µg/disc: HIC 6094, 48 h, read-out: IZ
Candida albicans [8] = experiment: Antifungal activity against Candida albicans ATCC 10231 assessed as growth inhibition at 300 ug/disk at 37 degC for 48 hr; conditions: ATCC 10231, 48 h, read-out: IZ
[9] = system: Chromobacterium violaceum; experiment: Antibacterial activity against Chromobacterium violaceum MTCC 2656 assessed as growth arrest at 37 degC for 24 hr; conditions: MTCC 2656, 24 h
Klebsiella aerogenes [10] = experiment: Antibacterial activity against Enterobacter aerogenes MTCC 39 assessed as growth arrest at 37 degC for 24 hr; conditions: MTCC 39, 24 h
Pseudomonas aeruginosa [11] = experiment: Antibacterial activity against Pseudomonas aeruginosa MTCC 741 assessed as growth arrest at 37 degC for 24 hr; conditions: MTCC 741, 24 h
Staphylococcus aureus [12] = experiment: Antibacterial activity against Staphylococcus aureus MTCC 96 assessed as growth arrest at 37 degC for 24 hr; conditions: MTCC 96, 24 h
[13] = system: Lysinibacillus sphaericus; experiment: Antibacterial activity against Lysinibacillus sphaericus MTCC 11 assessed as growth arrest at 37 degC for 24 hr; conditions: MTCC 11, 24 h
Bacillus subtilis [14] = experiment: Antibacterial activity against Bacillus subtilis MTCC 441 assessed as growth arrest at 37 degC for 24 hr; conditions: MTCC 441, 24 h
[15] = system: Chromobacterium violaceum; experiment: Antibacterial activity against Chromobacterium violaceum MTCC 2656 assessed as inhibition zones at 300 ug/disk at 37 degC for 24 hr; conditions: MTCC 2656, 24 h, read-out: IZ
Klebsiella aerogenes [16] = experiment: Antibacterial activity against Enterobacter aerogenes MTCC 39 assessed as inhibition zones at 300 ug/disk at 37 degC for 24 hr; conditions: MTCC 39, 24 h, read-out: IZ
Pseudomonas aeruginosa [17] = experiment: Antibacterial activity against Pseudomonas aeruginosa MTCC 741 assessed as inhibition zones at 300 ug/disk at 37 degC for 24 hr; conditions: MTCC 741, 24 h, read-out: IZ
Staphylococcus aureus [18] = experiment: Antibacterial activity against Staphylococcus aureus MTCC 96 assessed as inhibition zones at 300 ug/disc at 37 degC for 24 hr; conditions: MTCC 96, 24 h, read-out: IZ
[19] = system: Lysinibacillus sphaericus; experiment: Antibacterial activity against Lysinibacillus sphaericus MTCC 11 assessed as inhibition zones at 300 ug/disk at 37 degC for 24 hr; conditions: MTCC 11, 24 h, read-out: IZ
Bacillus subtilis [20] = experiment: Antibacterial activity against Bacillus subtilis MTCC 441 assessed as inhibition zones at 300 ug/disk at 37 degC for 24 hr; conditions: MTCC 441, 24 h, read-out: IZ
Caenorhabditis elegans = experiment: Nematicidal activity against Caenorhabditis elegans assessed as immobility; conditions: read-out: LD50 (the source's name)
[21] = system: Ditylenchus myceliophagus; experiment: Nematicidal activity against Ditylenchus myceliophagus assessed as immobility; conditions: read-out: LD50 (the source's name)

`COc1ccc(N2N=C3C(SC(c4cc(Cc5ccc(OC)c(C6SC7C(=NN(c8ccc(OC)cc8)C7c7ccc(F)cc7)N6c6ccc([N+](=O)[O-])cc6)c5)ccc4OC)N3c3ccc([N+](=O)[O-])cc3)C2c2ccc(F)cc2)cc1` (stereo unspecified) was tested, and the MBC [1] was “inactive”, the MIC [1] was “inactive” and the MBC (Trichophyton rubrum [2]) was 25 µg/mL (≈ 22.2 µM). It also gave an MIC (Trichophyton rubrum [2]) of 12.5 µg/mL (≈ 11.1 µM), an MBC (Aspergillus fumigatus [3]) of 25 µg/mL (≈ 22.2 µM) and an MIC (Aspergillus fumigatus [3]) of 12.5 µg/mL (≈ 11.1 µM). For the same molecule, the MBC (Candida albicans [4]) was 12.5 µg/mL (≈ 11.1 µM), the MIC (Candida albicans [4]) was 6.25 µg/mL (≈ 5.55 µM) and the “inhibition zone (IZ)” value [5] was “inactive”. The “inhibition zone (IZ)” value (Trichophyton rubrum [6]) was “inactive”, the “inhibition zone (IZ)” value (Aspergillus fumigatus [7]) was “inactive” and the zone of inhibition at 300 µg/disc (Candida albicans [8]) was 13 mm. The MBC [9] was 25 µg/mL (≈ 22.2 µM), the MIC [9] was 12.5 µg/mL (≈ 11.1 µM) and the MBC (Klebsiella aerogenes [10]) was 12.5 µg/mL (≈ 11.1 µM). The MIC (Klebsiella aerogenes [10]) was 6.25 µg/mL (≈ 5.55 µM), the MBC (Pseudomonas aeruginosa [11]) was 25 µg/mL (≈ 22.2 µM) and the MIC (Pseudomonas aeruginosa [11]) was 12.5 µg/mL (≈ 11.1 µM). For the same molecule, the MBC (Staphylococcus aureus [12]) was 25 µg/mL (≈ 22.2 µM), the MIC (Staphylococcus aureus [12]) was 12.5 µg/mL (≈ 11.1 µM) and the MBC [13] was 50 µg/mL (≈ 44.4 µM). For the same molecule, the MIC [13] was 12.5 µg/mL (≈ 11.1 µM), the MBC (Bacillus subtilis [14]) was 25 µg/mL (≈ 22.2 µM) and the MIC (Bacillus subtilis [14]) was 12.5 µg/mL (≈ 11.1 µM). It also gave a zone of inhibition at 300 µg/disc [15] of 16 mm, a zone of inhibition at 300 µg/disc (Klebsiella aerogenes [16]) of 21 mm and a zone of inhibition at 300 µg/disc (Pseudomonas aeruginosa [17]) of 9 mm. The zone of inhibition at 300 µg/disc (Staphylococcus aureus [18]) was 21 mm, the zone of inhibition at 300 µg/disc [19] was 20 mm and the zone of inhibition at 300 µg/disc (Bacillus subtilis [20]) was 14 mm. The LC50 (Caenorhabditis elegans) was 810 µg/mL (≈ 720 µM) and the LC50 [21] was 920 µg/mL (≈ 818 µM).
For `COc1ccc(Cc2ccc(OC)c(C3SC4C(=NN(Cc5ccccc5)C4c4ccc(F)cc4)N3c3ccc(Cl)cc3)c2)cc1C1SC2C(=NN(Cc3ccccc3)C2c2ccc(F)cc2)N1c1ccc(Cl)cc1` (stereo unspecified), the MBC ([1]; IFO 40996, 48 h) was 25 µg/mL (≈ 23.3 µM), the MIC ([1]; IFO 40996, 48 h) was 12.5 µg/mL (≈ 11.7 µM) and the MBC (Trichophyton rubrum [2]) was 12.5 µg/mL (≈ 11.7 µM). For the same molecule, the MIC (Trichophyton rubrum [2]) was 6.25 µg/mL (≈ 5.83 µM), the MBC (Aspergillus fumigatus [3]) was 12.5 µg/mL (≈ 11.7 µM) and the MIC (Aspergillus fumigatus [3]) was 6.25 µg/mL (≈ 5.83 µM). For the same molecule, the MBC (Candida albicans [4]) was 6.25 µg/mL (≈ 5.83 µM), the MIC (Candida albicans [4]) was 3.12 µg/mL (≈ 2.91 µM) and the zone of inhibition at 300 µg/disc [5] was 16 mm. For the same molecule, the zone of inhibition at 300 µg/disc (Trichophyton rubrum [6]) was 14 mm, the zone of inhibition at 300 µg/disc (Aspergillus fumigatus [7]) was 17 mm and the zone of inhibition at 300 µg/disc (Candida albicans [8]) was 21 mm. The MBC [9] was 6.25 µg/mL (≈ 5.83 µM), the MIC [9] was 6.25 µg/mL (≈ 5.83 µM) and the MBC (Klebsiella aerogenes [10]) was 12.5 µg/mL (≈ 11.7 µM). The MIC (Klebsiella aerogenes [10]) was 6.25 µg/mL (≈ 5.83 µM), the MBC (Pseudomonas aeruginosa [11]) was 50 µg/mL (≈ 46.6 µM) and the MIC (Pseudomonas aeruginosa [11]) was 12.5 µg/mL (≈ 11.7 µM). The MBC (Staphylococcus aureus [12]) was 25 µg/mL (≈ 23.3 µM), the MIC (Staphylococcus aureus [12]) was 6.25 µg/mL (≈ 5.83 µM) and the MBC [13] was 50 µg/mL (≈ 46.6 µM). It also gave an MIC [13] of 6.25 µg/mL (≈ 5.83 µM), an MBC (Bacillus subtilis [14]) of 12.5 µg/mL (≈ 11.7 µM) and an MIC (Bacillus subtilis [14]) of 6.25 µg/mL (≈ 5.83 µM). For the same molecule, the zone of inhibition at 300 µg/disc [15] was 18 mm, the zone of inhibition at 300 µg/disc (Klebsiella aerogenes [16]) was 23 mm and the zone of inhibition at 300 µg/disc (Pseudomonas aeruginosa [17]) was 18 mm. For the same molecule, the zone of inhibition at 300 µg/disc (Staphylococcus aureus [18]) was 30 mm, the zone of inhibition at 300 µg/disc [19] was 23 mm and the zone of inhibition at 300 µg/disc (Bacillus subtilis [20]) was 23 mm. For the same molecule, the LC50 (Caenorhabditis elegans) was 200 µg/mL (≈ 187 µM) and the LC50 [21] was 180 µg/mL (≈ 168 µM).
In the case of `COc1ccc(Cc2ccc(OC)c(C3SC4C(=NN(C)C4c4ccc(F)cc4)N3c3ccc([N+](=O)[O-])cc3)c2)cc1C1SC2C(=NN(C)C2c2ccc(F)cc2)N1c1ccc([N+](=O)[O-])cc1` (stereo unspecified), the MBC ([1]; IFO 40996, 48 h) is reported as 25 µg/mL (≈ 26.6 µM), the MIC ([1]; IFO 40996, 48 h) is reported as 12.5 µg/mL (≈ 13.3 µM) and the MBC (Trichophyton rubrum [2]) is reported as 25 µg/mL (≈ 26.6 µM). The MIC (Trichophyton rubrum [2]) was 12.5 µg/mL (≈ 13.3 µM), the MBC (Aspergillus fumigatus [3]) was 25 µg/mL (≈ 26.6 µM) and the MIC (Aspergillus fumigatus [3]) was 12.5 µg/mL (≈ 13.3 µM). The MBC (Candida albicans [4]) was 25 µg/mL (≈ 26.6 µM), the MIC (Candida albicans [4]) was 12.5 µg/mL (≈ 13.3 µM) and the zone of inhibition at 300 µg/disc [5] was 14 mm. It also gave a zone of inhibition at 300 µg/disc (Trichophyton rubrum [6]) of 15 mm, a zone of inhibition at 300 µg/disc (Aspergillus fumigatus [7]) of 14 mm and a zone of inhibition at 300 µg/disc (Candida albicans [8]) of 21 mm. The MBC [9] was 12.5 µg/mL (≈ 13.3 µM), the MIC [9] was 12.5 µg/mL (≈ 13.3 µM) and the MBC (Klebsiella aerogenes [10]) was 25 µg/mL (≈ 26.6 µM). For the same molecule, the MIC (Klebsiella aerogenes [10]) was 12.5 µg/mL (≈ 13.3 µM), the MBC (Pseudomonas aeruginosa [11]) was 12.5 µg/mL (≈ 13.3 µM) and the MIC (Pseudomonas aeruginosa [11]) was 12.5 µg/mL (≈ 13.3 µM). The MBC (Staphylococcus aureus [12]) was 25 µg/mL (≈ 26.6 µM), the MIC (Staphylococcus aureus [12]) was 12.5 µg/mL (≈ 13.3 µM) and the MBC [13] was 25 µg/mL (≈ 26.6 µM). The MIC [13] was 12.5 µg/mL (≈ 13.3 µM), the MBC (Bacillus subtilis [14]) was 6.25 µg/mL (≈ 6.64 µM) and the MIC (Bacillus subtilis [14]) was 6.25 µg/mL (≈ 6.64 µM). For the same molecule, the zone of inhibition at 300 µg/disc [15] was 18 mm, the zone of inhibition at 300 µg/disc (Klebsiella aerogenes [16]) was 19 mm and the zone of inhibition at 300 µg/disc (Pseudomonas aeruginosa [17]) was 12 mm. For the same molecule, the zone of inhibition at 300 µg/disc (Staphylococcus aureus [18]) was 21 mm, the zone of inhibition at 300 µg/disc [19] was 20 mm and the zone of inhibition at 300 µg/disc (Bacillus subtilis [20]) was 16 mm. For the same molecule, the LC50 (Caenorhabditis elegans) was 200 µg/mL (≈ 213 µM) and the LC50 [21] was 180 µg/mL (≈ 191 µM).

Source: ChEMBL document CHEMBL3045223, “Synthesis, nematicidal and antimicrobial properties of Bis-[4-methoxy-3-[3-(4-fluorophenyl)-6-(4-methylphenyl)-2(aryl)-tetrahydro-2H-pyrazolo[3,4-d]thiazol-5-yl]phenyl]methanes” (2009)
